Measurements reported in the supplement of paper PMC13380429.

How the values were obtained:
Conditions in all cases: 72 h
[1] = test system: Caco-2; assay: cell viability relative to DMSO; higher = less toxic
[2] = test system: Calu-3; assay: as above
[3] = test system: HepG2; assay: as above
[4] = test system: U2OS; assay: as above
[5] = test system: Vero E6; assay: as above
[6] = test system: Caco-2; assay: relative viability EC50 (midpoint between 100% and the lowest measured viability); higher = less toxic
[7] = test system: Calu-3; assay: as above
[8] = test system: HepG2; assay: as above
[9] = test system: U2OS; assay: as above
[10] = test system: Vero E6; assay: as above
[11] = test system: Caco-2; assay: drug sensitivity score (DSS) for viability; higher = more toxic; extreme values may be limits of the assay
[12] = test system: Calu-3; assay: as above
[13] = test system: HepG2; assay: as above
[14] = test system: U2OS; assay: as above
[15] = test system: Vero E6; assay: as above

SMILES | cell viability ([1]; 1 nM) [%] | cell viability ([1]; 10 nM) [%] | cell viability ([1]; 100 nM) [%] | cell viability ([1]; 1000 nM) [%] | cell viability ([1]; 10000 nM) [%] | cell viability ([2]; 1 nM) [%] | cell viability ([2]; 10 nM) [%] | cell viability ([2]; 100 nM) [%] | cell viability ([2]; 1000 nM) [%] | cell viability ([2]; 10000 nM) [%] | cell viability ([3]; 1 nM) [%] | cell viability ([3]; 10 nM) [%] | cell viability ([3]; 100 nM) [%] | cell viability ([3]; 1000 nM) [%] | cell viability ([3]; 10000 nM) [%] | cell viability ([4]; 1 nM) [%] | cell viability ([4]; 10 nM) [%] | cell viability ([4]; 100 nM) [%] | cell viability ([4]; 1000 nM) [%] | cell viability ([4]; 10000 nM) [%] | cell viability ([5]; 1 nM) [%] | cell viability ([5]; 10 nM) [%] | cell viability ([5]; 100 nM) [%] | cell viability ([5]; 1000 nM) [%] | cell viability ([5]; 10000 nM) [%] | relative viability EC50 [6] [µM] | relative viability EC50 [7] [µM] | relative viability EC50 [8] [µM] | relative viability EC50 [9] [µM] | relative viability EC50 [10] [µM] | drug sensitivity score [11] | drug sensitivity score [12] | drug sensitivity score [13] | drug sensitivity score [14] | drug sensitivity score [15]
Cc1cnc(C(=O)O)c[n+]1[O-] [acipimox] | 94.3 | 100 | 95.4 | 93.4 | 87.2 | 107 | 102 | 108 | 94.7 | 97.1 | 87.2 | 101 | 96.6 | 89.5 | 92.3 | 98.6 | 101 | 101 | 98.5 | 97 | 98.6 | 103 | 102 | 95.7 | 101 | > 10 | > 10 | > 10 | > 10 | > 10 | 0 | 0 | 0 | 0 | 0
OC[C@@H](O)[C@@H](O[C@@H]1O[C@H](CO)[C@H](O)[C@H](O)[C@H]1O)[C@H](O)[C@@H](O)CO [D-LACTITOL MONOHYDRATE] | 92.3 | 92.3 | 98.6 | 103 | 97.2 | 106 | 94.9 | 99.6 | 96.3 | 93.5 | 94 | 105 | 96.2 | 89.2 | 97.4 | 101 | 96.9 | 95.6 | 99.8 | 103 | 100 | 98.6 | 95.4 | 92.8 | 99.3 | > 10 | > 10 | > 10 | > 10 | > 10 | 0 | 0 | 0 | 0 | 0
CC(=C(CCO)SSCC1CCCO1)N(C=O)Cc1cnc(C)nc1N (stereo in doubt) [fursultiamine] | 112 | 91.6 | 97.6 | 106 | 96 | 98.5 | 101 | 108 | 110 | 114 | 93.3 | 87.5 | 90.2 | 110 | 97.8 | 101 | 102 | 98.7 | 97.8 | 98.2 | 106 | 95.5 | 99.2 | 97.3 | 102 | > 10 | > 10 | > 10 | > 10 | > 10 | 0 | 0 | 0 | 0 | 0
Cc1cc(SCc2sc(-c3ccc(C(F)(F)F)cc3)nc2C)ccc1OCC(=O)O | 99.9 | 103 | 104 | 103 | 96.2 | 108 | 92.8 | 92.6 | 99.5 | 102 | 99 | 101 | 106 | 104 | 96.1 | 98.4 | 102 | 99.9 | 107 | 99 | 106 | 104 | 103 | 97.6 | 97.3 | > 10 | > 10 | > 10 | > 10 | > 10 | 0 | 0 | 0 | 0 | 0
